In paper PMC6152279, “Characterization of the Fifth Putative Acetylcholinesterase in the Wolf Spider, Pardosa pseudoannulata” (Molecules : A Journal of Synthetic Chemistry and Natural …, 2017):
“And” between values parts separate entries of the source, which are not always exact repeats. Equal values may be shown once. Read-outs that look alike come from different tables or passages of the source.

Key:
PpAChE3 [1] = conditions: cited from earlier work; for Km / Vmax: substrate hydrolysis by PpAChE3
PpAChE4 [2] = conditions: cited from earlier work; for Km / Vmax: substrate hydrolysis by PpAChE4
PpAChE1 [3] = conditions: cited from earlier work; for Km / Vmax: substrate hydrolysis by PpAChE1
PpAChE5 [4] = molecular target: T1, PpAChE5 (Pardosa pseudoannulata, UniProt A0A1B1FIV8); experiment: Substrate hydrolysis kinetics of recombinant PpAChE5; format: biochemical; conditions: for Km / Vmax: substrate hydrolysis by PpAChE5, optimal pH
T1 sequence (A0A1B1FIV8 25-553): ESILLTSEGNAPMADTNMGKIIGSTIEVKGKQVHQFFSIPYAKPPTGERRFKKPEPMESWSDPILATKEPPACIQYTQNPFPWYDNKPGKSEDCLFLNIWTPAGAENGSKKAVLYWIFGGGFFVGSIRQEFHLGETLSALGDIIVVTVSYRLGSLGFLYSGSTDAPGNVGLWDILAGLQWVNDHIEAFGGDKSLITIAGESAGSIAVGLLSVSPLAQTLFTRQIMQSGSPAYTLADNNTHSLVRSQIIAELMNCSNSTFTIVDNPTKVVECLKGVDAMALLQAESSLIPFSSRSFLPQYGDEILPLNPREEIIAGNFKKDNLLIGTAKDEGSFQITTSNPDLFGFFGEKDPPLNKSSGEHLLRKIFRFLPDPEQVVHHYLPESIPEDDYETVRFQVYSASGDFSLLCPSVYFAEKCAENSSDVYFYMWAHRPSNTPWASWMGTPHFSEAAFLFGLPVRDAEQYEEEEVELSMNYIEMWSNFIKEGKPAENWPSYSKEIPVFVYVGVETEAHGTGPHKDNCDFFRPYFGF
Text: (§1) As described previously, complete coding sequence of the new putative ace gene was subcloned into the expression vector pFastBac-HTa with its specific primers (Table 5) and verified by nucleotide sequencing. The vector with an enhanced green fluorescent protein (eGFP, GenBank accession number: AAK15492), which constructed previously in our laboratory was as a control. Using baculovirus-insect expression system, Sf9 cells which infected by the recombinant Bacmid DNAs were used for protein expression, and the baculovirus culture supernatants were collected as the crude enzyme. The culture supernatants of non-infectious Sf9 cells were used as the negative control.
(§2) The methods for enzyme biochemical properties assaying were performed as described previously. Fifty microliters of enzyme, 100 μL of DTNB (75 μM) and 100 μL of substrate at different concentrations were mixed in a 96-well microplate for the enzyme activities detecting. Using Molecular Devices Thermomax Kinetic Microplate Reader, the mixed solutions were monitored for 20 min in 30 s intervals at 405 nm and three replications were used to calculate the mean level of enzyme activity. Different pH of the mixed-reaction solutions were employed for detecting enzyme optimal pH condition. Under the optimal pH of enzyme, the Michaelis–Menten constant value (KM) and maximal reaction velocity (Vmax) for each substrate were determined by fitting the velocity (ν) and substrate concentration ([S], 20–2000 μM) data to ν = Vmax [S]/(KM + [S]) using Prism 5.0 (GraphPad Software, La Jolla, CA, USA). Protein concentration was measured by the Protein-dye Binding Method according to the Micro BCA Protein Assay Kit (ThermoFisher, Waltham, MA, USA) instruction.

PpAChE2 [5] = conditions: cited from earlier work; for Km / Vmax: substrate hydrolysis by PpAChE2
PpAChE2 [6] = conditions: cited from earlier work
PpAChE4 [7] = conditions: cited from earlier work
PpAChE5 [8] = molecular target: T1, PpAChE5; experiment: Inhibition of enzyme activity (IC50) of PpAChE5; format: biochemical; conditions: for IC50: 10 min preincubation with inhibitor
Text: as §1, §2
To determine IC50 values of enzyme to different inhibitors, the enzyme was first incubated with an inhibitor at various concentrations ([I]) for 10 min. The residual enzyme activity (in reference to a mixture of the enzyme and buffer) was determined as above and plotted against −log10[I]. The IC50 value for each inhibitor was determined from nonlinear regression analysis of activity and −log10[I] data using Prism 5.0 (GraphPad Software, La Jolla, CA, USA). The bimolecular rate constant (ki) was determined by enzyme reaction premixed with various concentrations of an inhibitor and was fitted using Prism 5.0.

PpAChE1 [9] = conditions: cited from earlier work
PpAChE3 [10] = conditions: cited from earlier work
PpAChE5 [11] = molecular target: T1, PpAChE5; experiment: Inhibition kinetics (bimolecular rate constant ki) of PpAChE5; format: biochemical; conditions: ATC hydrolysis
Text: as §1
The methods for enzyme biochemical properties assaying were performed as described previously. Fifty microliters of enzyme, 100 μL of DTNB (75 μM) and 100 μL of substrate at different concentrations were mixed in a 96-well microplate for the enzyme activities detecting. Using Molecular Devices Thermomax Kinetic Microplate Reader, the mixed solutions were monitored for 20 min in 30 s intervals at 405 nm and three replications were used to calculate the mean level of enzyme activity. […] Protein concentration was measured by the Protein-dye Binding Method according to the Micro BCA Protein Assay Kit (ThermoFisher, Waltham, MA, USA) instruction. […]

Structure (SMILES)	Km (PpAChE3 [1]) [µM]	Vmax (PpAChE3 [1])	Km (PpAChE4 [2]) [µM]	Vmax (PpAChE4 [2])	Km (PpAChE1 [3]) [µM]	Vmax (PpAChE1 [3])	Km (PpAChE5 [4]) [µM]	Vmax (PpAChE5 [4])	Km (PpAChE2 [5]) [µM]	Vmax (PpAChE2 [5])	IC50 (PpAChE2 [6]; PpAChE2, on ATC hydrolysis) [nM]	IC50 (PpAChE4 [7]; PpAChE4, on ATC hydrolysis) [nM]	inhibition on ATC hydrolysis activity of PpAChE5 (PpAChE5 [8]; in words)	IC50 (PpAChE5 [8]; PpAChE5, on ATC hydrolysis) [nM]	IC50 (PpAChE1 [9]; PpAChE1, on ATC hydrolysis) [nM]	IC50 (PpAChE3 [10]; PpAChE3, on ATC hydrolysis) [nM]	further results
CC(=O)SCC[N+](C)(C)C.[I-] [ATC, acetylthiocholine iodide]	42.9 ± 5.8	124.7 ± 11.5 c nmol/mg·min	61.6 ± 7.5	86.6 ± 9.7 d nmol/mg·min	537 ± 63.4	112.6 ± 8.8 c nmol/mg·min	1300 ± 163	428.4 ± 29.2 a nmol/mg·min	4410 ± 534	253.9 ± 20.4 b nmol/mg·min							Vmax Ratio ATC vs. BTC (PpAChE3 [1]; PpAChE3): 3.09; Vmax Ratio ATC vs. PTC (PpAChE3 [1]; PpAChE3): 1.17; Vmax Ratio ATC vs. BTC (PpAChE4 [2]; PpAChE4): 0.82; Vmax Ratio ATC vs. PTC (PpAChE4 [2]; PpAChE4): 1.74; Vmax Ratio ATC vs. BTC (PpAChE1 [3]; PpAChE1): 1.18; Vmax Ratio ATC vs. PTC (PpAChE1 [3]; PpAChE1): 1.48; Vmax Ratio ATC vs. BTC (PpAChE5 [4]; PpAChE5): 4.6 and 4.68; Vmax Ratio ATC vs. PTC (PpAChE5 [4]; PpAChE5): 7.2 and 7.26; Vmax Ratio ATC vs. BTC (PpAChE2 [5]; PpAChE2): 1.09; Vmax Ratio ATC vs. PTC (PpAChE2 [5]; PpAChE2): 1.62
CCCC(=O)SCC[N+](C)(C)C.[I-] [BTC, butyrylthiocholine iodide]	199 ± 22.3	40.3 ± 5.6 c nmol/mg·min	269 ± 35.5	105.5 ± 8.9 b nmol/mg·min	859 ± 103	95.4 ± 12.8 b nmol/mg·min	1530 ± 118	91.6 ± 11.3 b nmol/mg·min	4540 ± 326	233.9 ± 16.5 a nmol/mg·min							Vmax Ratio BTC vs. BTC (PpAChE4 [2]; PpAChE4): 2.12; Vmax Ratio BTC vs. BTC (PpAChE1 [3]; PpAChE1): 1.25; Vmax Ratio BTC vs. BTC (PpAChE5 [4]; PpAChE5): 1.55; Vmax Ratio BTC vs. BTC (PpAChE2 [5]; PpAChE2): 1.49
C=CC[N+](C)(C)c1ccc(CCC(=O)CCc2ccc([N+](C)(C)CC=C)cc2)cc1.[Br-].[Br-] [BW284C51, 1,5-bis(4-allyldimethylammoniumphenyl)-pentan-3-one dibromide]											2540 ± 214	73.6 ± 10.5	strong inhibition	471 ± 69.3	51.2 ± 7.6	36.8 ± 5.3	
CNC(=O)Oc1ccc2c(c1)[C@]1(C)CCN(C)[C@@H]1N2C [Eserine, eserine]											1860 ± 251	245 ± 39.4	strong inhibition	1160 ± 157	117 ± 20.6	65.2 ± 18	ki (PpAChE5 [11]): 6.24 ± 1.72 b ×10^−7M^−1min^−1
CC(C)NP(=O)(NC(C)C)OP(=O)(NC(C)C)NC(C)C [ISO-OMPA, tetraisopropyl pyrophosphoramide]																	IC50 (PpAChE2 [6]; PpAChE2, on BTC hydrolysis): 21700 ± 3260 nM; IC50 (PpAChE4 [7]; PpAChE4, on BTC hydrolysis): > 100000 nM; inhibition against BTC hydrolysis (PpAChE5 [8]; PpAChE5, BTC hydrolysis, in words): very weak inhibition; IC50 (PpAChE5 [8]; PpAChE5, on BTC hydrolysis): > 100000 nM; IC50 (PpAChE1 [9]; PpAChE1, on BTC hydrolysis): > 100000 nM; IC50 (PpAChE3 [10]; PpAChE3, on BTC hydrolysis): > 100000 nM
CCC(=O)SCC[N+](C)(C)C.[I-] [PTC, propionylthiocholine iodide]	504 ± 86.8	106.2 ± 15.1 b nmol/mg·min	279 ± 35.2	49.7 ± 8.4 d nmol/mg·min	1150 ± 134	76.2 ± 9.2 c nmol/mg·min	1550 ± 129	59.0 ± 7.2 cd nmol/mg·min	4500 ± 319	156.8 ± 21.3 a nmol/mg·min							
